Measurements: patent EP2878306B1, “MODIFIED PEPTIDE, CB RECEPTOR LIGAND, KIT, IN VITRO PROCESS FOR […] RECEPTOR BONDS, USES, PHARMACEUTICAL COMPOSITION FOR […] RECEPTOR ACTIVITY” (Proteimax Biotecnologia Ltda, priority 2012, dated 2014)
No end group written: not given here.

How the values were obtained:
CB1 receptor = biological target: T1, CB1 receptor (Homo sapiens, UniProt P21554); assay: ELISA with striate membranes and anti-CB1 antibody, receptor activating percentage regarding the control; format: biochemical; conditions: for activity in CB1 receptors: striate membranes 5µg/pool, 1µM of each drug, 2 hours, ambient temperature, compared to control and SeqID:1
T1 construct: ligand for CB1 receptor through ELISA with striate membranes (5µg/pool) treated with 1µM of each drug; from tissue; host or cells: striatal ('striate') membranes
T1 sequence (P21554 whole entry): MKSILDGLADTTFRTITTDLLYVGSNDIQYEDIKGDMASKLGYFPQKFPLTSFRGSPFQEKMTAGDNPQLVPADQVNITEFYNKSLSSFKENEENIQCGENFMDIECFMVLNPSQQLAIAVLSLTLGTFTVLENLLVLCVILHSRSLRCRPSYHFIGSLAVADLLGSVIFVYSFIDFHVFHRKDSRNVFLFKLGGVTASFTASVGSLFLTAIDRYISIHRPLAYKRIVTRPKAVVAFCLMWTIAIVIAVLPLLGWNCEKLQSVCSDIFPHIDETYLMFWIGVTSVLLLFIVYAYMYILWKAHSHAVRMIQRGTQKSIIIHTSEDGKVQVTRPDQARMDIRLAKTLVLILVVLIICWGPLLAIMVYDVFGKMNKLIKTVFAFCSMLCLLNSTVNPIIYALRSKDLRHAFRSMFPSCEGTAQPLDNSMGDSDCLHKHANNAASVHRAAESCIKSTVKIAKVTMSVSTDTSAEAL
Procedure: (§1) The receptor activating percentage was calculated regarding the control, non-treated membrane (100%). […] Significant differences are indicated and p<0.05.

CB2 receptor = assay: ELISA with striate membranes for CB2 receptor, receptor activating percentage regarding the control; format: biochemical
Procedure: as §1

[1] = tested on: animals supplemented with 20% saccharose; assay: Determination of the adiposity ratio in animals supplemented with 20% saccharose (Example 25); format: in vivo, Wistar rats; conditions: 100µg/Kg; 30 days-treatment; in comparison to further groups
Procedure: (§2) Wistar rats fed with standard regimen supplemented with 20% saccharose were used in the drinking water during 60 days before and during the 30 days-treatment with SALINE (negative control), Rimonabant (positive control), Peptide 19 (Pep 19) in the concentration of 50µg/Kg and Peptide 19 (Pep 19) in the concentration of 100 µg/Kg.

[2] = tested on: animals supplemented with 20% saccharose; assay: Determination of the insulinemia in animals supplemented with 20% saccharose; format: in vivo, Wistar rats; conditions: 100 µg/Kg; after 30 days-treatment
Procedure: as §2

Thin wistar rats [3] = assay: Adiposity ratio determination; format: in vivo; conditions: 100 ug/Kg, 3 days orally; in comparison with Rimonabant and/or saline
Procedure: Thin wistar rats were treated with a Rimonabant dosage (100 ug/Kg) or peptide 19 (Pep 19 100 ug/Kg) during 3 days orally. The measure of the adiposity ratio was performed after finishing the treatment using the formula (%), (I=Σ fat deposits/body weight x 100). The results are expressed by the animal weight measured at the treatment end (scale of g/100g). Rats administered with vehicle (saline) were subject to the same protocol (control).

[4] = tested on: animals supplemented with 20% saccharose; assay: Determination of the adiposity ratio in animals supplemented with 20% saccharose (Example 26); format: in vivo, Wistar rats; conditions: 600µg/Kg; 30 days-treatment; in comparison to further groups
Procedure: (§3) Wistar rats fed with standard regimen supplemented with 20% saccharose were used in the drinking water during 60 days before and during the 30 days-treatment with SALINE (negative control), Rimonabant (positive control), Peptide 19 (Pep 19) in the concentration of 100µg/Kg, 300µg/Kg and 600µg/Kg.

[5] = tested on: animals supplemented with 20% saccharose; assay: Determination of the weight in animals supplemented with 20% saccharose; format: in vivo, Rats wistar; conditions: 100 µg/Kg; 3th to 5th week of treatment
Procedure: as §2, with “Rats wistar” for “Wistar rats”

[6] = tested on: animals supplemented with 20% saccharose; assay: Determination of the amount of mesenteric adipose tissue in animals supplemented with 20% saccharose; format: in vivo, Wistar rats; conditions: after the 30th day of treatment, in comparison to further groups
Procedure: as §2

non-obese wistar rats = assay: Treatment acute model, 3 days orally (Figures 4 to 9); format: in vivo
Source text: Furthermore, in a treatment acute model (3 days of treatment orally in non-obese wistar rats) it was verified the brown adipose tissue activation, the retroperitoneal, inguinal and brown adipose tissues reduction, as well the adiposity ratio (Figures 4 to 9), effects not observed with Rimonabant.

Rats = assay: Depression model (forced swim); format: in vivo; conditions: stated as contrary to Rimonabant
Procedure: The forced swim test was performed based on the previous tests ([Harkin et al., 2004], [Petit-Demouliere et al., 2005] and [Treit and Menard, 1998]).

Thin wistar rats [7] = assay: Serum leptin concentration determination; format: in vivo; conditions: 100 ug/Kg, 3 days orally; in comparison with saline
Procedure: Thin wistar rats were treated with a Rimonabant dosage (100 ug/Kg) or peptide 19 (Pep 19 100 ug/Kg) during 3 days orally. The measure of the serum leptin concentration was performed after finishing the treatment. The results are expressed ng/mL. Rats administered with vehicle (saline) were subject to the same protocol (control).

[8] = tested on: animals supplemented with 20% saccharose; assay: Determination of Triglycerides in animals supplemented with 20% saccharose; format: in vivo, Wistar rats; conditions: 100 µg/Kg; after 30 days-treatment
Procedure: as §2

Thin wistar rats [9] = assay: Test in Brown adipose tissue; format: in vivo; conditions: 100 ug/Kg, 3 days orally; in comparison with Rimonabant and/or saline; scale g/100g
Procedure: The measure of the adipose tissue was performed after finishing the treatment. The results are expressed by the brown adipose tissue weight measured at the treatment end (scale of g/100g). Rats administered with vehicle (saline) were subject to the same protocol (control).

Thin wistar rats [10] = assay: Test in Retroperitoneal adipose tissue; format: in vivo; conditions: 100 ug/Kg, 3 days orally; in comparison with Rimonabant and/or saline; scale g/100g
Procedure: The measure of the adipose tissue was performed after finishing the treatment. The results are expressed by the retroperitoneal adipose tissue weight measured for treatment purpose (scale of g/100g). Rats administered with vehicle (saline) were subject to the same protocol (control).

Thin wistar rats [11] = assay: Test in Mesenteric adipose tissue; format: in vivo; conditions: 100 ug/Kg, 3 days orally; in comparison with Rimonabant and/or saline; scale g/100g
Procedure: The measure of the adipose tissue was performed after finishing the treatment. The results are expressed by the mesenteric adipose tissue weight measured at the treatment end (scale of g/100g). Rats administered with vehicle (saline) were subject to the same protocol (control).

[12] = tested on: animals supplemented with 20% saccharose; assay: Determination of the cholesterol in animals supplemented with 20% saccharose; format: in vivo, Wistar rats; conditions: after 30 days-treatment
Procedure: as §2

Thin wistar rats [13] = assay: Test in Gonadal adipose tissue; format: in vivo; conditions: 100 ug/Kg, 3 days orally; in comparison with Rimonabant and/or saline; scale g/100g
Procedure: The measure of the adipose tissue was performed after finishing the treatment. The results are expressed by the gonadal adipose tissue weight measured at the treatment end (scale of g/100g). Rats administered with vehicle (saline) were subject to the same protocol (control).

[14] = tested on: animals supplemented with 20% saccharose; assay: Glucose in animals supplemented with 20% saccharose; format: in vivo, Winstar rats; conditions: 100 µg/Kg; 15th and 30th days of treatment
Procedure: as §2, with “Winstar” for “Wistar”

[15] = tested on: animals supplemented with 20% saccharose; assay: Determination of the amount of inguinal adipose tissue in animals supplemented with 20% saccharose; format: in vivo, Wistar rats; conditions: 100µg/Kg; after the 30th day of treatment; in comparison to further groups
Procedure: as §2

Thin wistar rats [16] = assay: Test in Inguinal adipose tissue; format: in vivo; conditions: 100 ug/Kg, 3 days orally; in comparison with Rimonabant and/or saline; scale g/100g
Procedure: The measure of the adipose tissue was performed after finishing the treatment. The results are expressed by the inguinal adipose tissue weight measured at the treatment end (scale of g/100g). Rats administered with vehicle (saline) were subject to the same protocol (control).

[17] = tested on: animals supplemented with 20% saccharose; assay: Determination of the blood pressure in animals supplemented with 20% saccharose; format: in vivo, Wistar rats; conditions: 600µg/Kg; 30 days-treatment; in comparison to further groups
Procedure: as §3

[18] = tested on: animals supplemented with 20% saccharose; assay: Determination of the amount of gonadal adipose tissue in animals supplemented with 20% saccharose; format: in vivo, Wistar rats; conditions: 100µg/Kg; after the 30th day of treatment; in comparison to further groups
Procedure: as §2

DILADDEPLT [SeqID:2]
Result (activity regarding the CB1) (CB1 receptor; Table 1 summary): Reduces the activity regarding the CB1
Result (activity in CB2) (CB2 receptor; Table 1 summary): raises a strong inverse agonist activity in CB2
activity in CB2 receptors (CB2 receptor; striate membranes 5µg/pool, 1 µM of each drug, 2 hours, ambient temperature): inverse agonist of the CB2 receptor

Cyclic peptide -Asp-Ile-Ile-Ala-Asp-Asp-Glu-Pro-Leu-Thr- [Example 6]
Result (change in the activity of the cyclic form) (CB1 receptor; Table 1 summary, in vitro, receptor not stated): Change in the activity was not detected

DIIADDAPLT [SeqID:3]
Result (activity regarding the CB1) (CB1 receptor; Table 1 summary): Reduces the activity regarding the CB1 (comparatively the SeqID:1).
activity in CB1 receptors (CB1 receptor): smaller activity in CB1 receptors

DIIADDE [SeqID:4]
Result (activity regarding the CB1) (CB1 receptor; Table 1 summary): Increases the activity regarding the CB1
activity in CB1 receptors (CB1 receptor): improved inverse agonist activity in CB1 receptors

DIIADDEPLT [SeqID:1]
adiposity ratio (adipose tissue total mass corrected by the body weight) [1]: biggest amounts of adipose tissue
insulinemia [2]: lower average of insulinemia
adiposity ratio (Thin wistar rats [3]): smaller
adiposity ratio (adipose tissue total mass corrected by the body weight) [4]: lower amounts of adipose tissue
weight percentages (% from the animals weight treated with SALINE) [5]: lower weight percentages
mesenteric adipose tissue, corrected by the body weight ([6]; 50 µg/Kg): lower percentages of mesenteric adipose tissue
mesenteric adipose tissue, corrected by the body weight ([6]; 100µg/Kg): lower percentages of mesenteric adipose tissue
adiposity ratio (non-obese wistar rats; 3 days of treatment orally): reduction
brown adipose tissue (non-obese wistar rats; 3 days of treatment orally): reduction
brown adipose tissue activation (non-obese wistar rats; 3 days of treatment orally): activation
inguinal adipose tissue (non-obese wistar rats; 3 days of treatment orally): reduction
retroperitoneal adipose tissue (non-obese wistar rats; 3 days of treatment orally): reduction
activity when administered orally (non-obese wistar rats; oral administration): has activity even when administered orally
depression (forced swim, immobility time) (Rats): does not cause depression
serum leptin concentration (Thin wistar rats [7]): smaller
activity in CB1 receptors (CB1 receptor): inverse agonist of the CB1 receptor
percentages of triglycerides (% from SALINE) [8]: lower percentages of triglycerides
brown adipose tissue mass (Thin wistar rats [9]): smaller
retroperitoneal adipose tissue mass (Thin wistar rats [10]): smaller
mesenteric adipose tissue mass (Thin wistar rats [11]): no difference
cholesterol percentages (% from SALINE) ([12]; 50µg/Kg): lower cholesterol percentages
cholesterol percentages (% from SALINE) ([12]; 100 µg/Kg): lower cholesterol percentages
gonadal adipose tissue mass (Thin wistar rats [13]): no difference
glycaemia [14]: lower glycaemia
inguinal adipose tissue, corrected by the body weight [15]: biggest amounts of inguinal adipose tissue
inguinal adipose tissue mass (Thin wistar rats [16]): smaller
blood pressure [17]: lower blood pressure
gonadal adipose tissue, corrected by the body weight [18]: lower percentages of gonadal adipose tissue

DIIADDEALT [SeqID:5]
Result (high dosages) (CB1 receptor; Table 1 summary, high dosages): became agonist
Result (low dosages) (CB1 receptor; Table 1 summary, low dosages): the inverse agonist activity was not detected
activity in the endocannabinoid receptors, high dosages (CB1 receptor; high dosages, different dosages of each drug, 2 hours (Figure 14, CB1 receptor)): agonist activity
activity in the endocannabinoid receptors, low dosages (CB1 receptor; low dosages, different dosages of each drug, 2 hours (Figure 14, CB1 receptor)): activity inverse agonist
